Data reported in ChEMBL document CHEMBL3507680, “University of Dundee, Gates Library screen for HepG2 cell viability”.

assay: Human HepG2 cell viability assay in 384 well format; format: toxicity, cell-based; set-up: dose 125 nL, time 70.5 hour; cytotoxicity at 70.5 h: concentration not given beside the values; settings: HepG2 cells, read-out: Inhibition

SMILES | cytotoxicity at 70.5 h
O=C(NCc1ccccc1)N1CCC(Oc2ncccc2Br)CC1 | -7.02%
CC1CN(C)CCN1CC(=O)NCCOc1ccc(Cl)cc1 (configuration not stated) | 11.2%
COCCCNC(=O)Cc1nc(-c2ccncc2)n[nH]1 | -1.85%
O=C(C1=COCCO1)N1CC(Oc2nc3c(Cl)cccc3s2)C1 | 30.4%
O=C(Cc1nc(-c2ccncc2)n[nH]1)N1CCOCC1 | -14.8%
COc1ncc(C(=O)N(Cc2cnn(C)c2)C(C)C)cn1 | -7.11%
CCOCCn1c(=O)n(Cc2ccccc2F)c2cc(C(=O)O)cnc21 | 11.9%
COc1c(C2CCCN2Cc2cc(C)no2)c(C)nn1C (configuration not stated) | -9.4%
Cc1cc2c(=O)n3c(nc2s1)CCN(C(=O)c1sc(C)nc1C)CC3 | -2.56%
CCc1nc(C2CCCN(C(=O)NC(C)C)C2)no1 (configuration not stated) | 21.2%
O=C(Nc1cccn(CC(F)(F)F)c1=O)c1ccncc1F | -11.6%
COC(=O)N1CCC(NC(=O)CC(C)CCc2ccccc2)CC1 (configuration not stated) | -14%
CCSCCn1c(=O)n(Cc2ccc(F)cc2)c2ncc(C(=O)O)cc21 | -4.52%
CCc1nn(C)c(Cl)c1CN1CCN(c2ccc(Cl)nn2)CC1 | 13.1%
COc1ccc(CN2CCn3cc(CN4CCN(C)CC4)nc3C2)cc1 | -7.16%
CCC(C)NC(=O)CN1CCC2(CC1)OCCO2 (configuration not stated) | 3.04%
Cc1cnn(Cc2cc(F)ccc2F)c1NC(=O)NC1CC1 | -7.32%
Cc1noc(C)c1CN1CCOC2(CCCN(c3ncccn3)C2)C1 (configuration not stated) | -5.7%
Cc1ncsc1CNC(=O)N(CCCO)C1CCc2ccccc21 (configuration not stated) | -7.98%
O=C1CCC2(CCN(CC[C@@H](O)c3ccccc3)CC2)CN1CC1CC1 | -5.97%
Cc1nc2cc(O)nn2c(C)c1CCC(=O)NCCCC(C)C | -3.79%

SMILES | cytotoxicity at 70.5 h
O=C(c1ccc(-n2ccnc2)nn1)N1CCCCC1Cn1cccn1 (configuration not stated) | -5.22%
O=C(CCCn1cnnn1)N1CCC(c2ccncc2)CC1 | 22.6%
CCCC(NC(=O)c1cc(C)ccc1O)c1nnn[nH]1 (configuration not stated) | -10.4%
Cc1ccc(CN2CC3(CCN(C(=O)c4cccnc4)C3)C2)o1 | 3.03%
O=S(=O)(N1CCCCC1)N1CCCN(CC2CCCO2)CC1 (configuration not stated) | 1.43%
O=C(NC1CC1)C1(Cc2cc(-c3ccc(F)cc3F)no2)CCOCC1 | 0.221%
Cc1cc(C)n(C(=O)Cn2nc(C)c(I)c2C)n1 | -7.22%
Cc1cc(NC(=O)c2ccccc2Br)n(C)n1 | 2.28%
CN(C)C(=O)N1CCOCC2(CCN(c3ccccn3)C2)C1 (configuration not stated) | -5.46%
CN1CCC(N(Cc2ccccc2)C(=O)c2ccn3ccnc3c2)CC1 | -2.58%
CC1=Nc2c(c(=O)[nH]n2C(C)C)C(c2cccc(OC(F)F)c2)S1 (configuration not stated) | -17.2%
c1ccc2sc(CN3CCOC(Cn4cncn4)C3)nc2c1 (configuration not stated) | -4.62%
COCCNC(=O)C1CC(=O)N(c2n[nH]c3cccc(F)c23)C1 (configuration not stated) | -25%
CCc1ccc(CNC(=O)Cn2ccc3sccc3c2=O)cc1 | 2.36%
O=S(=O)(Cc1ccccc1)NC[C@H]1Cn2ccnc2CO1 | 10.3%
Cc1nnc(CN(Cc2ccccc2C(F)(F)F)C2CC2)o1 | -10.9%
CCS(=O)(=O)N1CCCC(n2nnn(-c3ccccc3)c2=O)C1 (configuration not stated) | -4.32%
Cn1cc(N2CCC3(CCCN(Cc4ccoc4)C3)C2=O)cn1 (configuration not stated) | -6.63%
CCC(C)C(=O)NCCc1nc(C(F)(F)F)cs1 (configuration not stated) | -6.38%
CCOCCCNC(=O)C1(C)CCC(=O)N1Cc1ccccc1F (configuration not stated) | 0.95%
COc1ccc(Cc2nc3c([nH]2)CC(C)(C)CNC3=O)c(OC)c1 | -9.23%

SMILES | cytotoxicity at 70.5 h
COCCN1CC2(CCCN(Cc3cc(=O)c(OC)co3)C2)CCC1=O (configuration not stated) | -8.24%
c1cc(-c2nc3c(c(NCCn4ccnn4)n2)CCNCC3)ccn1 | 0.89%
CC(C)c1nnc2n1CCN(CC(=O)N1CCc3sccc3C1)C2 | -6.79%
CC(C)N1CC(C(=O)NCc2cccnc2-n2cccn2)CC1=O (configuration not stated) | -11%
CCc1nc(CN2CCCN(C(=O)C(CC)OC)CC2)cs1 (configuration not stated) | 6.03%
COc1ccc(C)c2c1N(C(=O)c1ccc3nnc(C)n3c1)CCC2 | -2.94%
OCCN1CCCCC1c1cc[nH]n1 (configuration not stated) | -8.74%
Cc1ccc2cc(C3(O)CCN(C(=O)CSC(C)C)CC3)ccc2n1 | -6%
O=C(Nc1ccc(F)c(-n2cccc2)c1)NC1(CCO)CCOCC1 | -10.8%
COc1nsc2nc(C3CCCN3c3ncccn3)ccc12 (configuration not stated) | -7.28%
CC(=O)Nc1nc(C2CCN(C(=O)C3CCC3)CC2)cs1 | -5.93%
Cn1cc(C(=O)N2CC[C@@H]3[C@@H]2CCN3Cc2cccc(C#N)c2)cn1 | 0.809%
Cc1ccccc1C(=O)N1CC[C@H](O)[C@@H](N2CCOCC2)CC1 | -4.48%
CCCNC(=O)C1CCN(CC2(O)CCC(C)CC2)CC1 (configuration not stated) | -3.07%
CN(C)S(=O)(=O)CCCN1CCCC1c1noc(C2CC2)n1 (configuration not stated) | 22.8%
Cc1noc(C)c1C(=O)N[C@@H]1CC[C@@H](Oc2ccccc2)[C@@H]1O | -2.95%
Cc1cccc2[nH]c(-c3cn(C4CCNCC4)nn3)nc12 | -3.11%
CCCc1noc(-c2ccc(-n3ncc(C(=O)O)c3C)nc2)n1 | 23.5%
CCOc1ccccc1NC(C)C(=O)N(C)Cc1cccc(F)c1 (configuration not stated) | 6.19%
CCN(CCO)C(=O)C1CCC(=O)N(Cc2cccc(OC)c2)C1 (configuration not stated) | -13.2%
O=C(c1cc[nH]n1)N1CCCC1c1cc(Nc2ccccn2)n[nH]1 (configuration not stated) | -11.2%

SMILES | cytotoxicity at 70.5 h
O=C(Cc1ccsc1)NCC1Cn2nnc(-c3ccoc3)c2CO1 (configuration not stated) | -4.44%
Cn1cc(NC(=O)N2CCC(OCc3ccccc3)CC2)ccc1=O | -9.18%
Cc1ccc(S(N)(=O)=O)cc1C(=O)NCC1Cc2ccccc2O1 (configuration not stated) | -3.82%
CCC1=N[C@@]2(CC[C@@H]3CN(C(=O)NCC(C)C)C[C@@H]32)C(=O)N1CCOC | -2.9%
COCCN1CCC(CN(CC2CCCO2)C(=O)Cc2cccs2)CC1 (configuration not stated) | -4.23%
CC(SCCNS(=O)(=O)c1cnn(C)c1)c1cccs1 (configuration not stated) | -4.4%
CNC(=O)c1cc(C)n(-c2ccccc2)n1 | -2.98%
Cc1ccccc1-n1cc(CNc2ncnc3c2CCNCC3)cn1 | -13.6%
COc1cccc(CNC(=O)C(C)N2CC(n3nc(C)cc3C)C2)c1 (configuration not stated) | -12.9%
Cc1cc(C(=O)N2CCCC(c3ccc(C(=O)O)cc3)C2)c(C)o1 (configuration not stated) | -17.2%
O=C(c1cc2c(s1)CCCC2)N1CCc2nc(C3CCCN3)ncc2C1 (configuration not stated) | 6.76%
COCCN1CCC2(CC1)CN(Cc1cccc(C)n1)C(=O)CO2 | 0.221%
CN(Cc1ccc(Cl)c(Cl)c1)C(=O)CNC(N)=O | 0.00328%
NC(=O)CCS(=O)(=O)Cc1ccc(OCC(F)(F)F)cc1 | -9.93%
Cc1cc(CN[C@@H](Cc2ccccc2)C(N)=O)c(C)s1 | -14.1%
CN(CCc1ccccn1)C(=O)Cn1cc(-c2ccccc2)nn1 | -3.22%
CN(C)c1ncc(C2Nc3cc(Cl)ccc3C3=NCCCN32)cn1 (configuration not stated) | -5.74%
COc1ccnc(N2CCC(OCCN3CCCCC3)C2)n1 (configuration not stated) | -2.49%
O=C(C1CCOCC1)N1CC[C@@](O)(c2ccccc2)[C@H]2CCCC[C@@H]21 | 24.9%
